Test system: MV-4-11 cells
Test: Gene expression microarray analysis (Affymetrix PrimeView) and GSEA
Type: cell-based, human
Parameters: RFU PODN (11730768_x_at) / Fold change /veh PODN (11730768_x_at) / RFU LINC00158 (11744669_a_at) / Fold change /veh LINC00158 (11744669_a_at) / RFU DUSP10 (11751237_a_at) / Fold change /veh DUSP10 (11751237_a_at) / RFU ID3 (11757404_x_at) / Fold change /veh ID3 (11757404_x_at) / RFU PLEKHG5 (11737974_s_at) / Fold change /veh PLEKHG5 (11737974_s_at) / RFU LRRC4B (11730491_at) / Fold change /veh LRRC4B (11730491_at) / RFU GIMAP4 (11747438_a_at) / Fold change /veh GIMAP4 (11747438_a_at) / RFU KRT8 (11758183_x_at) / Fold change /veh KRT8 (11758183_x_at) / RFU CNN1 (11734310_a_at) / Fold change /veh CNN1 (11734310_a_at) / RFU VPS37D (11726825_at) / Fold change /veh VPS37D (11726825_at) / RFU C10orf10 (11716522_x_at) / Fold change /veh C10orf10 (11716522_x_at) / RFU KIR2DL2 /// KIR2DL4 /// KIR2DL5A /// KIR2DL5B /// KIR2DS1 /// KIR2DS2 /// KIR2DS3 /// KIR2DS4 /// KIR3DL3 /// KIR3DL3 /// KIR3DS1 (11738374_at) / Fold change /veh KIR2DL2 /// KIR2DL4 /// KIR2DL5A /// KIR2DL5B /// KIR2DS1 /// KIR2DS2 /// KIR2DS3 /// KIR2DS4 /// KIR3DL3 /// KIR3DL3 /// KIR3DS1 (11738374_at) / RFU C1QL1 (11718748_at) / Fold change /veh C1QL1 (11718748_at) / RFU TMPRSS4 (11747572_a_at) / Fold change /veh TMPRSS4 (11747572_a_at) / RFU HAMP (11756126_x_at) / Fold change /veh HAMP (11756126_x_at) / RFU RNFT2 (11725882_a_at) / Fold change /veh RNFT2 (11725882_a_at) / RFU NR4A2 (11747474_a_at) / Fold change /veh NR4A2 (11747474_a_at) / RFU ABCC12 (11746883_a_at) / Fold change /veh ABCC12 (11746883_a_at) / RFU TMEM136 (11760407_x_at) / Fold change /veh TMEM136 (11760407_x_at) / RFU CLDN22 /// WWC2 (11732394_at) / Fold change /veh CLDN22 /// WWC2 (11732394_at) / RFU HLA-DPB1 (11760878_x_at) / Fold change /veh HLA-DPB1 (11760878_x_at) / RFU SPINT1 (11716480_a_at) / Fold change /veh SPINT1 (11716480_a_at) / RFU GAP43 (11754022_s_at) / Fold change /veh GAP43 (11754022_s_at) / RFU A4GNT (11735810_at) / Fold change /veh A4GNT (11735810_at) / RFU PRB3 (11715151_x_at) / Fold change /veh PRB3 (11715151_x_at) / RFU TUBB4B (11761932_at) / Fold change /veh TUBB4B (11761932_at) / RFU CAPN14 (11732068_a_at) / Fold change /veh CAPN14 (11732068_a_at) / RFU TMCC2 (11721928_a_at) / Fold change /veh TMCC2 (11721928_a_at) / RFU IRGQ (11745062_a_at) / Fold change /veh IRGQ (11745062_a_at) / RFU FAM174B (11720279_a_at) / Fold change /veh FAM174B (11720279_a_at) / RFU TMPRSS4 (11748680_a_at) / Fold change /veh TMPRSS4 (11748680_a_at) / RFU FAM212B (11763350_a_at) / Fold change /veh FAM212B (11763350_a_at) / RFU PLEKHG5 (11743358_a_at) / Fold change /veh PLEKHG5 (11743358_a_at) / RFU ZSCAN30 (11745921_a_at) / Fold change /veh ZSCAN30 (11745921_a_at) / RFU CMKLR1 (11741424_a_at) / Fold change /veh CMKLR1 (11741424_a_at) / RFU LOC101060620 /// MAPK8IP1 (11723275_at) / Fold change /veh LOC101060620 /// MAPK8IP1 (11723275_at) / RFU SPTSSB (11747773_x_at) / Fold change /veh SPTSSB (11747773_x_at) / RFU PRSS12 (11739890_at) / Fold change /veh PRSS12 (11739890_at) / RFU BIN1 (11741810_x_at) / Fold change /veh BIN1 (11741810_x_at) / RFU WNT11 (11732464_a_at) / Fold change /veh WNT11 (11732464_a_at) / RFU C10orf10 (11716521_a_at) / Fold change /veh C10orf10 (11716521_a_at) / RFU C5orf56 (11738089_at) / Fold change /veh C5orf56 (11738089_at) / RFU CYB561 (11721691_x_at) / Fold change /veh CYB561 (11721691_x_at) / RFU ANKRD19P (11752326_a_at) / Fold change /veh ANKRD19P (11752326_a_at) / RFU OR2T12 /// OR2T33 /// OR2T8 (11738714_s_at) / Fold change /veh OR2T12 /// OR2T33 /// OR2T8 (11738714_s_at) / RFU VCAN (11748164_a_at) / Fold change /veh VCAN (11748164_a_at) / RFU JSRP1 (11732532_at) / Fold change /veh JSRP1 (11732532_at) / RFU KRTAP10-11 (11738290_x_at) / Fold change /veh KRTAP10-11 (11738290_x_at) / RFU MYO3A (11730013_a_at) / Fold change /veh MYO3A (11730013_a_at) / RFU EBF3 (11725865_a_at) / Fold change /veh EBF3 (11725865_a_at) / RFU CAMK2N1 (11719241_x_at) / Fold change /veh CAMK2N1 (11719241_x_at) / RFU C5orf56 (11738088_a_at) / Fold change /veh C5orf56 (11738088_a_at) / RFU OLFML3 (11715873_a_at) / Fold change /veh OLFML3 (11715873_a_at) / RFU LOC100653217 /// NTM (11731650_a_at) / Fold change /veh LOC100653217 /// NTM (11731650_a_at) / RFU MAPK11 (11762145_a_at) / Fold change /veh MAPK11 (11762145_a_at) / RFU FIZ1 (11724087_x_at) / Fold change /veh FIZ1 (11724087_x_at) / RFU OASL (11726364_x_at) / Fold change /veh OASL (11726364_x_at) / RFU SOX15 (11748057_x_at) / Fold change /veh SOX15 (11748057_x_at) / RFU CD79A (11719716_a_at) / Fold change /veh CD79A (11719716_a_at) / RFU HIST1H1D (11736915_at) / Fold change /veh HIST1H1D (11736915_at) / RFU CASKIN2 (11723855_a_at) / Fold change /veh CASKIN2 (11723855_a_at) / RFU LOC730098 (11760151_x_at) / Fold change /veh LOC730098 (11760151_x_at) / RFU OR4N2 (11742367_at) / Fold change /veh OR4N2 (11742367_at) / RFU PRRT2 (11749266_a_at) / Fold change /veh PRRT2 (11749266_a_at) / RFU SNX32 (11753110_a_at) / Fold change /veh SNX32 (11753110_a_at) / RFU CDHR5 (11726645_a_at) / Fold change /veh CDHR5 (11726645_a_at) / RFU RCAN1 (11760418_a_at) / Fold change /veh RCAN1 (11760418_a_at) / RFU FAM167A (11723789_a_at) / Fold change /veh FAM167A (11723789_a_at) / RFU FAM26E (11764081_at) / Fold change /veh FAM26E (11764081_at) / RFU ISYNA1 (11749810_s_at) / Fold change /veh ISYNA1 (11749810_s_at) / RFU ACY1 (11761880_at) / Fold change /veh ACY1 (11761880_at) / RFU 11764098_at / Fold change /veh 11764098_at / RFU SAMD14 (11745864_x_at) / Fold change /veh SAMD14 (11745864_x_at) / RFU NPB (11741838_a_at) / Fold change /veh NPB (11741838_a_at) / RFU TMPRSS6 (11731388_a_at) / Fold change /veh TMPRSS6 (11731388_a_at) / RFU KRTAP10-2 (11738614_at) / Fold change /veh KRTAP10-2 (11738614_at) / RFU ARHGAP8 /// PRR5-ARHGAP8 (11727945_x_at) / Fold change /veh ARHGAP8 /// PRR5-ARHGAP8 (11727945_x_at) / RFU KRTAP5-7 /// NADSYN1 (11734609_at) / Fold change /veh KRTAP5-7 /// NADSYN1 (11734609_at) / RFU RASL12 (11751679_a_at) / Fold change /veh RASL12 (11751679_a_at) / RFU CDKN2B (11736163_a_at) / Fold change /veh CDKN2B (11736163_a_at) / RFU PRF1 (11729649_at) / Fold change /veh PRF1 (11729649_at) / RFU, ZNF638 /// ZNF638-IT1 / Fold change vs veh, ZNF638 /// ZNF638-IT1 / RFU, PANK3 / Fold change vs veh, PANK3 / RFU, SH3YL1 / Fold change vs veh, SH3YL1 / RFU, ZEB2 / Fold change vs veh, ZEB2 / RFU, NRIP1 / Fold change vs veh, NRIP1 / RFU, PTTG1IP / Fold change vs veh, PTTG1IP / RFU, CAPN2 / Fold change vs veh, CAPN2 / RFU, MED14 / Fold change vs veh, MED14 / RFU, SNORA58 / Fold change vs veh, SNORA58 / RFU, C1orf63 / Fold change vs veh, C1orf63 / RFU, LRRFIP1 / Fold change vs veh, LRRFIP1 / RFU, NDUFAF7 / Fold change vs veh, NDUFAF7 / RFU, SLC12A2 / Fold change vs veh, SLC12A2 / RFU, IBTK / Fold change vs veh, IBTK / RFU, ESF1 / Fold change vs veh, ESF1 / Fold change vs veh, TMEM50B / RFU, TAOK1 / Fold change vs veh, TAOK1 / RFU, ACBD3 / Fold change vs veh, ACBD3 / RFU, TMA16 / Fold change vs veh, TMA16 / RFU, RWDD3 / Fold change vs veh, RWDD3 / RFU, BCAT1 / Fold change vs veh, BCAT1 / RFU, EDEM3 / Fold change vs veh, EDEM3 / RFU, TMEM33 / Fold change vs veh, TMEM33 / RFU, WDR75 / Fold change vs veh, WDR75 / RFU, AHCTF1 / Fold change vs veh, AHCTF1 / RFU, TFRC / Fold change vs veh, TFRC / RFU, ZDHHC17 / Fold change vs veh, ZDHHC17 / RFU, NOM1 / Fold change vs veh, NOM1 / RFU, ARL8B / Fold change vs veh, ARL8B / RFU, ZBTB11 / Fold change vs veh, ZBTB11 / RFU, TAMM41 / Fold change vs veh, TAMM41 / RFU, KIAA1704 /// LOC100996395 / Fold change vs veh, KIAA1704 /// LOC100996395 / RFU, ING1 / Fold change vs veh, ING1 / RFU, TRMT61B / Fold change vs veh, TRMT61B / RFU, FUBP3 / Fold change vs veh, FUBP3 / RFU, TP53 / Fold change vs veh, TP53 / RFU, TNKS2 / Fold change vs veh, TNKS2 / RFU, ZFP14 / Fold change vs veh, ZFP14 / RFU, ACTR2 / Fold change vs veh, ACTR2 / RFU, PPP3R1 / Fold change vs veh, PPP3R1 / RFU, PIK3R1 / Fold change vs veh, PIK3R1 / RFU, HNRNPA1 / Fold change vs veh, HNRNPA1 / RFU, RNF170 / Fold change vs veh, RNF170 / RFU, ZNF28 / Fold change vs veh, ZNF28 / RFU, RNGTT / Fold change vs veh, RNGTT / RFU, OGT / Fold change vs veh, OGT / RFU, BRD1 / Fold change vs veh, BRD1 / RFU, MARS / Fold change vs veh, MARS / RFU, ZNF655 / Fold change vs veh, ZNF655 / RFU, FAHD1 / Fold change vs veh, FAHD1 / RFU, BDP1 / Fold change vs veh, BDP1 / RFU, LRRCC1 / Fold change vs veh, LRRCC1 / RFU, ARID1A / Fold change vs veh, ARID1A / RFU, ZNF146 / Fold change vs veh, ZNF146 / RFU, ZNF330 / Fold change vs veh, ZNF330 / RFU, GPN3 / Fold change vs veh, GPN3 / RFU, C9orf123 / Fold change vs veh, C9orf123 / RFU, N4BP2L2 / Fold change vs veh, N4BP2L2 / RFU, ARFIP1 / Fold change vs veh, ARFIP1 / RFU, FAM179B / Fold change vs veh, FAM179B / RFU, BCL10 / Fold change vs veh, BCL10 / RFU, UHRF1BP1L / Fold change vs veh, UHRF1BP1L / RFU, BET1 / Fold change vs veh, BET1 / RFU, CNOT2 / Fold change vs veh, CNOT2 / RFU, ZNF268 / Fold change vs veh, ZNF268 / Fold change vs veh, ZNF507 / RFU, DGCR2 / Fold change vs veh, DGCR2 / RFU, WDSUB1 / Fold change vs veh, WDSUB1 / Fold change vs veh, HSP90B1 /// MIR3652 / RFU, ADSS / Fold change vs veh, ADSS / RFU, GK / Fold change vs veh, GK / RFU, ZNF148 / Fold change vs veh, ZNF148 / RFU, TAF9 / Fold change vs veh, TAF9 / RFU, SLC1A5 / Fold change vs veh, SLC1A5 / RFU, SLMO2 / Fold change vs veh, SLMO2 / RFU, ABCC4 / Fold change vs veh, ABCC4 / RFU, LOC101060439 /// RAP1B / Fold change vs veh, LOC101060439 /// RAP1B / RFU, RFX7 / Fold change vs veh, RFX7 / RFU, GTPBP10 / Fold change vs veh, GTPBP10 / RFU, CNEP1R1 / Fold change vs veh, CNEP1R1 / RFU, BIVM-ERCC5 /// ERCC5 / Fold change vs veh, BIVM-ERCC5 /// ERCC5 / RFU, ILF3 / Fold change vs veh, ILF3 / RFU 11762660_at / Fold change /veh 11762660_at / RFU VCAN (11757783_s_at) / Fold change /veh VCAN (11757783_s_at) / RFU DDX43 (11728927_at) / Fold change /veh DDX43 (11728927_at) / RFU KRT8 (11758188_x_at) / Fold change /veh KRT8 (11758188_x_at) / RFU NKD1 (11759106_at) / Fold change /veh NKD1 (11759106_at) / RFU SRD5A1 (11742802_a_at) / Fold change /veh SRD5A1 (11742802_a_at) / RFU TPSAB1 /// TPSB2 (11721975_s_at) / Fold change /veh TPSAB1 /// TPSB2 (11721975_s_at) / RFU GSTM3 (11746129_a_at) / Fold change /veh GSTM3 (11746129_a_at) / RFU IL23R (11737362_x_at) / Fold change /veh IL23R (11737362_x_at) / RFU TMEM51 (11727254_a_at) / Fold change /veh TMEM51 (11727254_a_at) / RFU PIWIL2 (11732686_x_at) / Fold change /veh PIWIL2 (11732686_x_at) / RFU ORM1 (11744905_x_at) / Fold change /veh ORM1 (11744905_x_at) / RFU CCDC152 (11743942_at) / Fold change /veh CCDC152 (11743942_at) / RFU ECM1 (11717891_a_at) / Fold change /veh ECM1 (11717891_a_at) / RFU IL23R (11748794_a_at) / Fold change /veh IL23R (11748794_a_at) / RFU TNFAIP8L3 (11732012_x_at) / Fold change /veh TNFAIP8L3 (11732012_x_at) / RFU MBOAT4 (11741988_at) / Fold change /veh MBOAT4 (11741988_at) / RFU 11764193_at / Fold change /veh 11764193_at / RFU TMEM53 (11763286_at) / Fold change /veh TMEM53 (11763286_at) / RFU MAGEB2 (11727129_at) / Fold change /veh MAGEB2 (11727129_at) / RFU TMEM200A (11744735_a_at) / Fold change /veh TMEM200A (11744735_a_at) / RFU CCDC152 (11751479_a_at) / Fold change /veh CCDC152 (11751479_a_at) / RFU FAM211A (11726209_a_at) / Fold change /veh FAM211A (11726209_a_at) / RFU RGS16 (11746705_a_at) / Fold change /veh RGS16 (11746705_a_at) / RFU VCAN (11755009_s_at) / Fold change /veh VCAN (11755009_s_at) / RFU RHOB (11743442_s_at) / Fold change /veh RHOB (11743442_s_at) / RFU RGS16 (11720943_a_at) / Fold change /veh RGS16 (11720943_a_at) / RFU RGS16 (11720944_at) / Fold change /veh RGS16 (11720944_at) / RFU, VPS4B / Fold change vs veh, VPS4B / RFU, CREB1 / Fold change vs veh, CREB1 / RFU, DNAJC13 / Fold change vs veh, DNAJC13 / RFU, GNAQ / Fold change vs veh, GNAQ / RFU, CDK5R1 / Fold change vs veh, CDK5R1 / RFU, ZRANB3 / Fold change vs veh, ZRANB3 / RFU, CUL4A / Fold change vs veh, CUL4A / RFU, CCNY / Fold change vs veh, CCNY / RFU, UFL1 / Fold change vs veh, UFL1 / RFU, COG3 / Fold change vs veh, COG3 / RFU, DIAPH2 / Fold change vs veh, DIAPH2 / RFU, SKA2 / Fold change vs veh, SKA2 / RFU, AFF3 / Fold change vs veh, AFF3 / RFU, LMF1 / Fold change vs veh, LMF1 / RFU, IPO11 / Fold change vs veh, IPO11 / RFU, DFFB / Fold change vs veh, DFFB / RFU, FOXP1 / Fold change vs veh, FOXP1 / RFU, CARD8 / Fold change vs veh, CARD8 / RFU, STRN3 / Fold change vs veh, STRN3 / RFU, ADK / Fold change vs veh, ADK / RFU, RASSF2 / Fold change vs veh, RASSF2 / RFU, WIPF1 / Fold change vs veh, WIPF1 / RFU, LARP1B / Fold change vs veh, LARP1B / RFU, RASA1 / Fold change vs veh, RASA1 / RFU, RB1 / Fold change vs veh, RB1 / RFU, PPFIA1 / Fold change vs veh, PPFIA1 / RFU, MAT2A / Fold change vs veh, MAT2A / RFU, CCT5 / Fold change vs veh, CCT5 / RFU, WDR92 / Fold change vs veh, WDR92 / RFU, CUX1 / Fold change vs veh, CUX1 / RFU, TTC7A / Fold change vs veh, TTC7A / RFU, TMEM135 / Fold change vs veh, TMEM135 / RFU, DEPTOR / Fold change vs veh, DEPTOR / RFU, CPM / Fold change vs veh, CPM / RFU, DNAJB6 / Fold change vs veh, DNAJB6 / RFU, CACNA2D3 / Fold change vs veh, CACNA2D3 / RFU, DTX4 / Fold change vs veh, DTX4 / RFU, TFCP2 / Fold change vs veh, TFCP2 / RFU, GMCL1 /// GMCL1P1 / Fold change vs veh, GMCL1 /// GMCL1P1 / RFU, AEBP2 / Fold change vs veh, AEBP2 / RFU, SNHG1 /// SNORD22 /// SNORD25 /// SNORD26 /// SNORD27 /// SNORD28 /// SNORD29 /// SNORD31 / Fold change vs veh, SNHG1 /// SNORD22 /// SNORD25 /// SNORD26 /// SNORD27 /// SNORD28 /// SNORD29 /// SNORD31 / Fold change (Aza/veh), C12orf56 (ProbeSet 11735607_a_at) / Fold change (ACY-1035/veh), C12orf56 (ProbeSet 11735607_a_at) / Fold change (Aza/veh), FGFR1OP (ProbeSet 11751329_s_at) / Fold change (ACY-1035/veh), FGFR1OP (ProbeSet 11751329_s_at) / Fold change (Aza/veh), VPS36 (ProbeSet 11739960_a_at) / Fold change (ACY-1035/veh), VPS36 (ProbeSet 11739960_a_at) / RFU SYPL1 (11715823_x_at) / Fold change /veh SYPL1 (11715823_x_at) / RFU IGFBP7 (11715501_s_at) / Fold change /veh IGFBP7 (11715501_s_at) / RFU REEP3 (11722064_at) / Fold change /veh REEP3 (11722064_at) / RFU IGLL1 (11728026_x_at) / Fold change /veh IGLL1 (11728026_x_at): dose or concentration left out as unconfirmed
Conditions: ProbeSet 11743286_at; LIST D

Nc1ccc(-c2cccs2)cc1NC(=O)c1ccc2c(c1)cc(C1CC1)n2CCN1CCOCC1 [ACY-1035]
RFU, DTX4: 268.88 RFU

Reference: publication PMC5218480 (PLoS ONE, 2017)
